# Test results as given in patent US20120076842A1, “COSMETIC USE OF TYR-ARG DIPEPTIDE TO COMBAT CUTANEOUS SAGGING” (SEDERMA, priority 2009, published 2012).
# What was measured:
# [1] = tested on: LOXL-1 in reconstructed skin specimens (Full Thickness Skin PHENION); assay: LOXL-1 (lysyl oxydase like 1) synthesis in reconstructed skin specimens (immunolabeling); format: cell-based; conditions: TGF-β1 used as positive control
# Method: LOXL synthesis was analyzed by preparations containing Tyr-Arg dipeptide in reconstructed skin specimens (Full Thickness Skin PHENION).
# LOXL synthesis after application of the dipeptide was evaluated by an immunohistochemical analysis.
# Preparations of Tyr-Arg dipeptide were applied to the surface of ? aged ? or not ? aged ? skins from the evening of D1 then every day. The skins were thereafter frozen for the immunohistochemical analysis.
# [2] = tested on: transglutaminase activity in NHDF; assay: Transglutaminase activity in NHDF (Dansyl Cadaverine substrate, fluorescence); format: cell-based, human; conditions: TGF-β1 10^−6%, vs control, n=6
# Source text: NHDF were cultivated until confluence. The cells were exposed or not exposed to preparations containing or not Tyr-Arg dipeptide. The cell layers are then exposed to transglutaminase substrate (Dansyl Cadaverine, DC). The fluorescence obtained is proportional to transglutaminase activity. (n=6).
# [3] = tested on: elastin/tropoelastin, NHDF; assay: Synthesis of elastin/tropoelastin by normal human fibroblasts (immunolabeling, image analysis); format: cell-based; conditions: TGF-β1, vs control
# Method: Principle: normal human fibroblastes (NHDF) were cultured to confluence. The cells were then exposed or not to preparations containing Tyr-Arg peptide. The cellular layers are then marked with an antibody recognising specifically elastine.
# [4] = tested on: Fibrillin-1 by NHDF; assay: Synthesis of Fibrillin-1 by NHDF (immunolabeling method); format: cell-based, human; conditions: TGF-β1 10^−6%, vs control
# Method: As indicated in the introduction, elastin formation is not sufficient. The presence of microfibril scaffolding is necessary. The induction of Fibrillin-1 synthesis was thus investigated.
# NHDF were cultured to confluence. The cells were then exposed or not exposed to Tyr-Arg dipeptide at different concentrations for 18 days. The cell layers were then labeled with an antibody to specifically detect Fibrillin-1 by immunofluorescence.
# Standardized photographs enabled imaging and quantification of Fibrillin-1 synthesis by image analysis (n=4).
# [5] = tested on: Fibulin-5 synthesis by NHDF; assay: Fibulin-5 synthesis by NHDF (Western Blot method); format: cell-based, human; conditions: 10^−6% TGF-β1
# Method: NHDF were cultured to confluence. The cells were exposed or not exposed to preparations containing Tyr-Arg dipeptide. The cell layers were then lysed and analyzed using the Western Blot* method. Fibulin-5 synthesis was detected using a specific antibody. The resulting bands were quantified using appropriate image-analysis software. * Western Blot: the cell layers were blended in lysis buffer. The lysate was applied to a polyacrylamide gel for electrophoresis. After migration, the proteins were transferred to a nitrocellulose membrane and the proteins of interest detected using a specific antibody. Image analysis was used to quantify the two fibulin-5 bands obtained.
# [6] = tested on: Elastin/Tropoelastin by normal human fibroblasts; assay: Release of Elastin/Tropoelastin by normal human fibroblasts (ELISA sandwich method); format: cell-based; conditions: TGF-β1 10-6% (positive control); vs control (placebo); n = 5
# Method: Normal human dermal fibroblasts (NHDF) were cultured to confluence. The cells were then exposed or not to preparations comprising the Tyr-Arg dipeptide at different concentrations. The culture supernatants were assayed to determine the quantity of Elastin/Tropoelastin using an ELISA sandwich method. TGF-β1 was used as the positive control.
substance,measurement,setting,value
TGF-β1 [reference compound],Effect on synthesis of LOXL-1 (positive control),[1],expected effect stimulating the synthesis of LOXL-1
same,% change of the transglutaminase activity (AFU/10^6 cells),[2],+26%; p < 0.01
same,"% change (elastin/tropoelastin, immunolabeling)",[3],+87%; p < 0.01
same,% change of Fibrillin-1 synthesis,[4],+760%; p < 0.01
same,% change/Control (fibulin-5 bands),[5],+55% p < 0.01
same,Mean intensity (UA) of the fibulin-5 bands,[5]; control 18.6 +/− 4.3,28.8 +/− 8 UA
same,% change in the elastin/tropoelastin synthesis,[6],+1127%; p < 0.01
